Assay results published in publication PMC12818745 (ACS Chemical Neuroscience, 2025).

Key:
[1] = in vitro; settings: for Prediction (penetration into the CNS): class from PAMPA-BBB P e; for Papp at 2.5 h: pig, PAMPA, pH 7.4
Experimental: To assess BBB permeability, a parallel artificial membrane permeability assay (PAMPA)-BBB was performed, which predicts passive BBB permeability using a brain lipid porcine membrane.
The prediction of the brain penetration was evaluated using a PAMPA-BBB. […] Next, 100 μL of these stock solutions were added to a solution of 1400 μL of EtOH and 3500 μL of PBS at pH 7.4, to reach 30% of EtOH concentration in the experiment. These solutions were filtered, using Filter PDVF membrane units (diameter 30 mm, pore size 0.45 μm, from Symta). After this, the acceptor 96-well microplate (Multiscreen, catalogue no. MAMCS9610, from Millipore) was filled with 180 μL of PBS/EtOH (70/30). […] After 5 min, 180 μL of each compound solution was added. 1–2 mg of each selected compound was dissolved in 1500 μL of EtOH and 3500 μL of PBS at pH 7.4, filtered, and then added to the donor 96-well plate to determine their ability to cross the brain barrier. After this, the donor plate was carefully put on the acceptor plate to form a “sandwich” and incubated for 2.5 h at 25 °C. During this period, the compounds diffused from the donor plate through the brain lipid membrane into the acceptor plate. Afterward, the donor plate was removed. A 96-well plate UV reader (Thermoscientific, Multiskan spectrum) was used to determine the concentration of compounds and commercial drugs in the acceptor and donor wells. Every sample was analyzed at three to five wavelengths, in three wells, and in two independent runs. […] Ten quality control compounds (previously mentioned) of known BBB permeability were included in each experiment to validate the analysis set.

[2] = target: T1, Aβ42 aggregation (Homo sapiens, UniProt P05067); assay: Thioflavin S assay of Aβ42 aggregation in E. coli cells overexpressing Aβ42; assay type: cell-based, Escherichia coli; settings: read-out: Aβ42 inhibition %
T1 construct: expressed in transfected cells; host or cells: E. coli BL21 (DE3), pET vector
Experimental: The antiaggregating profiles of both series A and B were evaluated using a fluorescence Thioflavin S (ThS) assay in cellulo, which monitors ThS fluorescence in the presence of β-sheet-rich structures, such as Aβ and tau protein aggregates. This method, based on recombinant Escherichia coli (E. coli) bacteria overexpressing insoluble aggregates, offers a simple and cost-effective approach to model aggregation processes in mammalian systems and has been validated for use in drug discovery studies. , Compounds were tested at a screening concentration of 50 μM for their ability to inhibit Aβ42 aggregation. The results, summarized in Table , reveal distinct antiaggregating profiles between series A and B, which are once again influenced by their structural differences.
42 Amino acid Aβ42 was cloned and overexpressed in E. coli BL21 (DE3) competent cells using the pET vector harboring the DNA sequence of Aβ42. Due to the addition of the initiation codon ATG preceding genes, the resulting overexpressed peptide contained an additional methionine residue at its N-terminus. For the preparation of overnight cultures, a colony of BL21 (DE3) cells carrying the plasmid for expression was inoculated in 10 mL of M9 minimal medium supplemented with 50 μg mL^–1 kanamycin at 37 °C. Subsequently, a 1:500 dilution of the overnight culture was added to fresh M9 minimal medium containing 50 μg mL^–1 kanamycin and 25 μM ThS. The bacterial culture was then incubated at 37 °C with agitation at 250 rpm. Upon reaching an OD600 of 0.6, 980 μL of the culture was transferred into 1.5 mL Eppendorf tubes, each containing 10 μL of the compound to be tested dissolved in DMSO and 10 μL of 100 mM isopropyl 1-thio-β-D-galactopyranoside (IPTG) or, alternatively, 10 μL of water for the noninduced controls. The final compound concentration was adjusted to […]. The samples were allowed to grow overnight at 37 °C with agitation at 1400 rpm using a Thermomixer (Eppendorf). Negative controls, representing maximum amyloid presence, utilized free DMSO.
ThS (T1892) and all other chemical reagents were purchased from Sigma (St. Louis, MO). Stock solutions of ThS (250 μM) were prepared using doubly distilled water purified via a Milli-Q system (Millipore). For the fluorescence assay, ThS spectra were recorded utilizing an AmincoBowman series 2 luminescence spectrophotometer (Aminco-Bowman AB2, SLM Aminco, Rochester, NY) within the range of 460 to 600 nm at a temperature of 25 °C. The excitation wavelength employed was 445 nm, with slit widths set at 4 nm. The emission at 485 nm, corresponding to the ThS peak observed in the presence of amyloids, was recorded. To standardize ThS fluorescence relative to bacterial concentration in both in vitro and cell-based assays, the OD600 was determined using a Shimadzu UV-2401 PC UV–vis spectrophotometer. Fluorescence normalization was executed by setting the ThS fluorescence of bacterial cells expressing the peptide or protein in the absence of the drug as 100%, while that of bacterial cells not expressing the peptide or protein was established as 0%.

[3] = target: T2, P-glycoprotein (P-gp) (Homo sapiens, UniProt P08183); assay: Calcein-AM-assay in hMEC/D3 cells; assay type: cell-based; settings: 1, 10, 50 and 100 μM
T2 construct: endogenous in cells; host or cells: hMEC/D3 cells
Experimental: To complement this approach and better understand whether these compounds may be substrates of such transporters, we next employed the calcein-AM-assay. This assay is particularly useful for assessing P-glycoprotein (P-gp), a major efflux transporter at the BBB that actively limits drug accumulation in the brain. To investigate potential interactions with P-gp, compounds 10, 11q-s were tested at concentrations of 1 μM, 10 μM, 50 μM and 100 μM, using the calcein-AM-assay in hMEC/D3 cells (Figure ). […] Therefore, these compounds are not expected to be P-gp substrates and may have favorable capacity to cross the BBB via passive diffusion, making them promising candidates for CNS drug development. […].
For all compounds tested, stock solutions were prepared in DMSO. Dilutions were then made with Krebs-Ringer buffer (KRB). […] Fluorescence was measured using a Tecan Infinite 200 Pro plate reader with λ excitation = 485 nm and λ emission = 535 nm. Each test compound was measured with n = 3, control and background were measured with n = 3. All fluorescence values were corrected by subtracting the background fluorescence. The increase in cellular fluorescence caused by a test compound was referred to the fluorescence of the control. […]

T2 sequence (P08183 whole entry): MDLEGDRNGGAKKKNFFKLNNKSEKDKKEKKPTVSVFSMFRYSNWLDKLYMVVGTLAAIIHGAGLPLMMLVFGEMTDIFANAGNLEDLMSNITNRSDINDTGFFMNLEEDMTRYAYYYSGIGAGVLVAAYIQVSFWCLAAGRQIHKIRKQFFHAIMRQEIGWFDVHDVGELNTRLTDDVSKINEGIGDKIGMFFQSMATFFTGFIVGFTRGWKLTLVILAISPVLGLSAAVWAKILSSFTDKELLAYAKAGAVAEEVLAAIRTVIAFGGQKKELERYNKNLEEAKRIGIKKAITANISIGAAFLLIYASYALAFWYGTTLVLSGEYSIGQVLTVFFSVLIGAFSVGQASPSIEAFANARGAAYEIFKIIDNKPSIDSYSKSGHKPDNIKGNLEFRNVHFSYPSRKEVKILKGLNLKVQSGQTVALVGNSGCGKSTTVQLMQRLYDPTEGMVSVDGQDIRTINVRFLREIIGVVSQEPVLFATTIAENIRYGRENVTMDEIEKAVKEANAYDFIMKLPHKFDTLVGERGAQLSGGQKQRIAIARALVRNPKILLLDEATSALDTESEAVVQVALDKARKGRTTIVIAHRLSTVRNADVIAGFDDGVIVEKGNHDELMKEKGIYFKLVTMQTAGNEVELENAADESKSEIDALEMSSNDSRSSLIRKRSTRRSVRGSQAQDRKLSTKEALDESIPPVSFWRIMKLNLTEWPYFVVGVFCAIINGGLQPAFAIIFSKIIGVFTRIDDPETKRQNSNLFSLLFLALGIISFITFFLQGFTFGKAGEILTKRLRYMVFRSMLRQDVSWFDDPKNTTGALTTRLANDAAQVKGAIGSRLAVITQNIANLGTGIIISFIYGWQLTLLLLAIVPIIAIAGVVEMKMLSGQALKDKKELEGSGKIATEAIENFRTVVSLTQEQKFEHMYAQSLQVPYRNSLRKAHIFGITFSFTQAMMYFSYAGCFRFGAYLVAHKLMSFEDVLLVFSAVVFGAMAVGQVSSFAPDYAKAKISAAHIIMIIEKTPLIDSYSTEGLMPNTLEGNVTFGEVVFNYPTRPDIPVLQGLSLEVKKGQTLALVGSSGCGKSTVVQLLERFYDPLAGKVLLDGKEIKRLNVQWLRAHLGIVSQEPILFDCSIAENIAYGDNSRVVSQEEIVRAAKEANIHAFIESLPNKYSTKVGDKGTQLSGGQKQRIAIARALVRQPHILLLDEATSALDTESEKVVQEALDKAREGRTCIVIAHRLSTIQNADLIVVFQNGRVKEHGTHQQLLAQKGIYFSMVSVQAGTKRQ
T1 sequence (P05067 672-713): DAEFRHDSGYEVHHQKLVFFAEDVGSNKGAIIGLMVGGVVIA

Row | SMILES | Prediction (penetration into the CNS) [1] | Papp at 2.5 h [1] [×10⁻⁶ cm/s] | inhibition at 50 µM [2] [%] | Interaction with P-gp (intracellular calcein fluorescence) [3]
1 | C#CCN(CC#C)c1ccccc1/C=C/c1cc(=O)c2ccccc2o1 [Compound 10, (E)-2-{2-[Di(prop-2-yn-1-yl)amino]styryl}-4H-chromen-4-one] | CNS+ (High BBB permeation predicted (CNS+) P e > 3.93) | 11.6 ± 3.39 | 36 ± 18.3 | clear inhibitory effect on P-gp activity
2 | COc1ccc2c(=O)c3cc4c(cc3oc2c1)-c1cc(Cl)ccc1OC4 [Compound 11r, 2-Chloro-11-methoxy-6H,8H-chromeno[3,4-b]xanthen-8-one] | CNS+ (High BBB permeation predicted (CNS+) P e > 3.93) | 7.12 ± 0.89 | 57 ± 5.7 | unlikely to be actively effluxed from the brain
